Measured values: PubChem BioAssay AID248 (DTP/NCI, 2004)
Values joined by “and” are separate entries in the source; they are usually repeats but may differ in a detail not shown here. Identical values can stand only once. Toxic doses and inconclusive results are not listed. Cut-off read from the data, not from the text of the source: active = T/C of 150% or more; inactive = T/C below 125%.

Test system: L1210 leukemia ip in BDF1 mice, survival T/C
Experiment: NCI In Vivo Anticancer Drug Screen. Data for tumor model L1210 Leukemia (intraperitoneal) in B6D2F1 (BDF1) mice
Details: endpoint: mean survival time, higher = longer survival
Procedure, shortened: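 Read-out is survival time, reported as the treated-group measurement over the vehicle-control measurement.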

[1] = dose: 100.0 mg/kg/injection, schedule: Q01DX001 (ip), vehicle: carboxymethylcellulose (CMC)
[2] = dose: 200.0 mg/kg/injection, schedule: Q01DX001 (ip), vehicle: carboxymethylcellulose (CMC)
[3] = dose: 400.0 mg/kg/injection, schedule: Q01DX001 (ip), vehicle: carboxymethylcellulose (CMC)
[4] = dose: 100.0 mg/kg/injection, schedule: Q01DX001 (ip), vehicle: saline
[5] = dose: 200.0 mg/kg/injection, schedule: Q01DX001 (ip), vehicle: saline
[6] = dose: 400.0 mg/kg/injection, schedule: Q01DX001 (ip), vehicle: saline
[7] = dose: 100.0 mg/kg/injection, schedule: Q01DX009 (ip), vehicle: saline
[8] = dose: 200.0 mg/kg/injection, schedule: Q01DX009 (ip), vehicle: saline
[9] = dose: 25.0 mg/kg/injection, schedule: Q04DX003 (ip), vehicle: saline
[10] = dose: 50.0 mg/kg/injection, schedule: Q01DX009 (ip), vehicle: saline
[11] = dose: 50.0 mg/kg/injection, schedule: Q04DX003 (ip), vehicle: saline
[12] = dose: 100.0 mg/kg/injection, schedule: Q04DX003 (ip), vehicle: saline
[13] = dose: 200.0 mg/kg/injection, schedule: Q04DX003 (ip), vehicle: saline
[14] = dose: 400.0 mg/kg/injection, schedule: Q04DX003 (ip), vehicle: saline
[15] = dose: 100.0 mg/kg/injection, schedule: Q01DX009 (ip), vehicle: saline with Tween-80
[16] = dose: 200.0 mg/kg/injection, schedule: Q01DX009 (ip), vehicle: saline with Tween-80

Measured: T/C

COc1ccc2c(c1)C1(C)CCCC(C)C1=CC2=O (stereo not given)
inactive: dose: 25.0 mg/kg/injection, schedule: Q01DX001 (ip), vehicle: other 100 % of control | dose: 50.0 mg/kg/injection, schedule: Q01DX001 (ip), vehicle: other 100 % of control | dose: 100.0 mg/kg/injection, schedule: Q01DX001 (ip), vehicle: other 97 % of control

CCOC(=O)/C(C#N)=C1/C=C(N)CCC1
inactive: [1] 98 % of control | [2] 94 % of control | [3] 100 % of control

COC1=C2C=[N+](C)C3C(=C2C=CC1OC)Cc1cc(OC)c(OC)cc13 (stereo not given)
inactive: dose: 50.0 mg/kg/injection, schedule: Q01DX001 (ip), vehicle: saline 98 % of control | [4] 93 % of control | [5] 102 % of control | [6] 96 % of control

NC(N)=NCCCC(N=Cc1ccccc1)C(=O)O (stereo not given)
inactive: [7] 97 % of control | [8] 101 % of control | dose: 400.0 mg/kg/injection, schedule: Q01DX009 (ip), vehicle: saline 98 % of control

CC[N+](CC)(CC)CCC[n+]1ccc(/C=N\O)cc1
inactive: [9] 100 % of control | [10] 112 % of control | [11] 100 % of control | [7] 102 % of control | [12] 100 % of control and 92 % of control

CCOC(=O)NC1=C(N2CC2C)C(=O)C(NC(=O)OCC)=C(N2CC2C)C1=O (stereo not given)
inactive: dose: 0.93 mg/kg/injection, schedule: Q01DX009 (ip), vehicle: Klucel (hydroxypropylcellulose) (HPC) 94 % of control and 100 % of control | dose: 1.87 mg/kg/injection, schedule: Q01DX009 (ip), vehicle: Klucel (hydroxypropylcellulose) (HPC) 97 % of control and 107 % of control | dose: 3.12 mg/kg/injection, schedule: Q04DX003 (ip), vehicle: Klucel (hydroxypropylcellulose) (HPC) 106 % of control | dose: 3.75 mg/kg/injection, schedule: Q01DX009 (ip), vehicle: Klucel (hydroxypropylcellulose) (HPC) 98 % of control and 100 % of control | dose: 6.25 mg/kg/injection, schedule: Q04DX003 (ip), vehicle: Klucel (hydroxypropylcellulose) (HPC) 95 % of control | dose: 7.5 mg/kg/injection, schedule: Q01DX009 (ip), vehicle: Klucel (hydroxypropylcellulose) (HPC) 102 % of control and 91 % of control | dose: 12.5 mg/kg/injection, schedule: Q04DX003 (ip), vehicle: Klucel (hydroxypropylcellulose) (HPC) 106 % of control | dose: 15.0 mg/kg/injection, schedule: Q01DX009 (ip), vehicle: Klucel (hydroxypropylcellulose) (HPC) 91 % of control | dose: 25.0 mg/kg/injection, schedule: Q04DX003 (ip), vehicle: Klucel (hydroxypropylcellulose) (HPC) 112 % of control | dose: 50.0 mg/kg/injection, schedule: Q04DX003 (ip), vehicle: Klucel (hydroxypropylcellulose) (HPC) 110 % of control

CC(=O)C(c1ccccc1)N(C)C(=O)c1ccccc1 (stereo not given)
inactive: dose: 100.0 mg/kg/injection, schedule: Q04DX003 (ip), vehicle: acetone 93 % of control | dose: 200.0 mg/kg/injection, schedule: Q04DX003 (ip), vehicle: acetone 86 % of control | dose: 400.0 mg/kg/injection, schedule: Q04DX003 (ip), vehicle: acetone 89 % of control

CC(C)(CO)N=Cc1ccccc1Cl
inactive: [4] 102 % of control | [5] 100 % of control | [6] 100 % of control

Cc1cc(OC(C)C(=O)O)c(Cl)cc1Cl (stereo not given)
inactive: dose: 50.0 mg/kg/injection, schedule: Q01DX001 (ip), vehicle: carboxymethylcellulose (CMC) 103 % of control | [1] 103 % of control

CS(=O)(=O)OCC(=O)COS(C)(=O)=O
inactive: dose: 1.25 mg/kg/injection, schedule: Q01DX009 (ip), vehicle: saline 95 % of control | dose: 2.5 mg/kg/injection, schedule: Q01DX009 (ip), vehicle: saline 93 % of control | dose: 10.0 mg/kg/injection, schedule: Q01DX009 (ip), vehicle: saline 116 % of control

CSc1cc(C(=O)O)nc(SC)n1
inactive: dose: 100.0 mg/kg/injection, schedule: Q01DX Z (ip), vehicle: methylcellulose (MC) 97 % of control

Nc1nc(N)c(-c2ccc(Cl)cc2)c(CN2C(=O)c3ccccc3C2=O)n1
inactive: dose: 75.0 mg/kg/injection, schedule: Q01DX001 (ip), vehicle: Klucel (hydroxypropylcellulose) (HPC) 97 % of control | dose: 150.0 mg/kg/injection, schedule: Q01DX001 (ip), vehicle: Klucel (hydroxypropylcellulose) (HPC) 92 % of control | dose: 300.0 mg/kg/injection, schedule: Q01DX001 (ip), vehicle: Klucel (hydroxypropylcellulose) (HPC) 92 % of control

CC(=O)Oc1ccc(-c2ccc(Cl)cc2)cc1
inactive: [1] 103 % of control | [2] 109 % of control | [3] 97 % of control

Nc1cc(C(=O)Nc2ccc(S(=O)(=O)O)cc2)ccc1C(=O)Nc1ccc(S(=O)(=O)O)cc1
inactive: dose: 31.0 mg/kg/injection, schedule: Q01DX Z (ip), vehicle: water 87 % of control | dose: 62.5 mg/kg/injection, schedule: Q01DX Z (ip), vehicle: water 100 % of control | dose: 125.0 mg/kg/injection, schedule: Q01DX Z (ip), vehicle: water 97 % of control | dose: 250.0 mg/kg/injection, schedule: Q01DX Z (ip), vehicle: water 95 % of control | dose: 500.0 mg/kg/injection, schedule: Q01DX Z (ip), vehicle: water 97 % of control

COC(=O)C[N+]1(C)C2CCC1CC(Cl)C2 (stereo not given)
inactive: [4] 101 % of control

N/N=C/NN=C(N)N
inactive: dose: 15.0 mg/kg/injection, schedule: Q01DX Z (ip), vehicle: saline 97 % of control | dose: 30.0 mg/kg/injection, schedule: Q01DX Z (ip), vehicle: saline 107 % of control | dose: 60.0 mg/kg/injection, schedule: Q01DX Z (ip), vehicle: saline 100 % of control | dose: 120.0 mg/kg/injection, schedule: Q01DX Z (ip), vehicle: saline 100 % of control | dose: 120.0 mg/kg/injection, schedule: Q01DX Z (oral), vehicle: saline 114 % of control

Oc1ccc(CNCCNCCNCc2ccc(O)cc2)cc1
inactive: dose: 12.5 mg/kg/injection, schedule: Q01DX009 (ip), vehicle: saline 87 % of control | dose: 25.0 mg/kg/injection, schedule: Q01DX009 (ip), vehicle: saline 102 % of control | [9] 110 % of control | [10] 93 % of control | [11] 95 % of control | [7] 102 % of control and 92 % of control | [12] 98 % of control and 92 % of control | [8] 105 % of control

CCCn1c(C)nc2c1C(=O)c1ccccc1C2=O
inactive: [4] 94 % of control | [12] 86 % of control | [5] 98 % of control | [13] 88 % of control | [6] 103 % of control | [14] 91 % of control

O=C(CSc1cc(Cl)c(Cl)cc1Cl)Nc1ccccc1Br
inactive: dose: 50.0 mg/kg/injection, schedule: Q01DX009 (ip), vehicle: saline with Tween-80 94 % of control | [15] 97 % of control | [16] 87 % of control

C=CS(=O)(=O)c1ccccc1Cl
inactive: dose: 100.0 mg/kg/injection, schedule: Q04DX003 (ip), vehicle: Klucel (hydroxypropylcellulose) (HPC) 104 % of control | dose: 200.0 mg/kg/injection, schedule: Q04DX003 (ip), vehicle: Klucel (hydroxypropylcellulose) (HPC) 98 % of control

CCCCCCCCCCCCOC(=O)c1cc(O)c(O)c(O)c1
inactive: dose: 75.0 mg/kg/injection, schedule: Q01DX001 (ip), vehicle: acetone 103 % of control

O=C(O)/C=C/C(=O)Nc1ccc([N+](=O)[O-])c(C(F)(F)F)c1
inactive: dose: 100.0 mg/kg/injection, schedule: Q01DX009 (ip), vehicle: Klucel (hydroxypropylcellulose) (HPC) 107 % of control | dose: 200.0 mg/kg/injection, schedule: Q01DX009 (ip), vehicle: Klucel (hydroxypropylcellulose) (HPC) 112 % of control

O=C(O)/C=C/c1ccc(Cl)cc1Cl
inactive: [15] 88 % of control | [16] 87 % of control

O=C(Cc1ccc(Cl)cc1)N/N=C/c1ccc([N+](=O)[O-])s1
inactive: [12] 93 % of control | [13] 93 % of control | [14] 90 % of control

CCCCCCCCCC[n+]1cccc(C(N)=O)c1
inactive: dose: 5.0 mg/kg/injection, schedule: Q04DX003 (ip), vehicle: saline 93 % of control | dose: 10.0 mg/kg/injection, schedule: Q04DX003 (ip), vehicle: saline 96 % of control | dose: 20.0 mg/kg/injection, schedule: Q04DX003 (ip), vehicle: saline 96 % of control

C=CC(=O)NCCN(C)C
inactive: dose: 75.0 mg/kg/injection, schedule: Q01DX001 (ip), vehicle: saline 104 % of control | dose: 150.0 mg/kg/injection, schedule: Q01DX001 (ip), vehicle: saline 93 % of control | dose: 300.0 mg/kg/injection, schedule: Q01DX001 (ip), vehicle: saline 104 % of control
